Measured values reported in the supplement of paper PMC13380429.

Assays:
Details in all cases: 72 h
Caco-2 [1] = test: cell viability relative to DMSO; higher = less toxic
Calu-3 [2] = test: as above
HepG2 [3] = test: as above
U2OS [4] = test: as above
Caco-2 [5] = test: relative viability EC50 (midpoint between 100% and the lowest measured viability); higher = less toxic
Calu-3 [6] = test: as above
HepG2 [7] = test: as above
U2OS [8] = test: as above
Caco-2 [9] = test: drug sensitivity score (DSS) for viability; higher = more toxic; extreme values may be limits of the assay
Calu-3 [10] = test: as above
HepG2 [11] = test: as above
U2OS [12] = test: as above
Vero E6 [13] = test: cell viability relative to DMSO; higher = less toxic
Vero E6 [14] = test: relative viability EC50 (midpoint between 100% and the lowest measured viability); higher = less toxic
Vero E6 [15] = test: drug sensitivity score (DSS) for viability; higher = more toxic; extreme values may be limits of the assay

Row | Structure (SMILES) | cell viability (Caco-2 [1]; 1 nM) [%] | cell viability (Caco-2 [1]; 10 nM) [%] | cell viability (Caco-2 [1]; 100 nM) [%] | cell viability (Caco-2 [1]; 1000 nM) [%] | cell viability (Caco-2 [1]; 10000 nM) [%] | cell viability (Calu-3 [2]; 1 nM) [%] | cell viability (Calu-3 [2]; 10 nM) [%] | cell viability (Calu-3 [2]; 100 nM) [%] | cell viability (Calu-3 [2]; 1000 nM) [%] | cell viability (Calu-3 [2]; 10000 nM) [%] | cell viability (HepG2 [3]; 1 nM) [%] | cell viability (HepG2 [3]; 10 nM) [%] | cell viability (HepG2 [3]; 100 nM) [%] | cell viability (HepG2 [3]; 1000 nM) [%] | cell viability (HepG2 [3]; 10000 nM) [%] | cell viability (U2OS [4]; 1 nM) [%] | cell viability (U2OS [4]; 10 nM) [%] | cell viability (U2OS [4]; 100 nM) [%] | cell viability (U2OS [4]; 1000 nM) [%] | cell viability (U2OS [4]; 10000 nM) [%] | relative viability EC50 (Caco-2 [5]) [µM] | relative viability EC50 (Calu-3 [6]) [µM] | relative viability EC50 (HepG2 [7]) [µM] | relative viability EC50 (U2OS [8]) [µM] | drug sensitivity score (Caco-2 [9]) | drug sensitivity score (Calu-3 [10]) | drug sensitivity score (HepG2 [11]) | drug sensitivity score (U2OS [12]) | cell viability (Vero E6 [13]; 1 nM) [%] | cell viability (Vero E6 [13]; 10 nM) [%] | cell viability (Vero E6 [13]; 100 nM) [%] | cell viability (Vero E6 [13]; 1000 nM) [%] | cell viability (Vero E6 [13]; 10000 nM) [%] | relative viability EC50 (Vero E6 [14]) [µM] | drug sensitivity score (Vero E6 [15])
1 | O=C(N[C@@H]1CC[C@@H](c2cccc(F)c2F)CN(CC(F)(F)F)C1=O)N1CCC(n2c(=O)[nH]c3ncccc32)CC1 [telcagepant] | 104 | 96 | 102 | 90.2 | 86.7 | 94.7 | 98.1 | 95.7 | 105 | 108 | 102 | 101 | 96.9 | 98.8 | 93.2 | 98.5 | 99.1 | 104 | 97 | 97.6 | > 10 | > 10 | > 10 | > 10 | 0.6 | 0 | 0 | 0 | – | – | – | – | – | – | –
2 | CCS(=O)(=O)N(Cc1cccnc1)c1cccc(-c2ccc(C#N)cc2)c1 [CBiPES] | 100 | 99.2 | 98.1 | 92.6 | 76.4 | 101 | 96.5 | 97.1 | 96.8 | 112 | 98.5 | 96.3 | 93.7 | 105 | 56.7 | 104 | 97.2 | 103 | 98.1 | 94.6 | > 10 | > 10 | – | > 10 | 1.6 | 0 | 1.9 | 0 | 103 | 96.7 | 101 | 96.4 | 85.9 | > 10 | 0.5
3 | CN(C)CCCn1cc(C2=C(c3c[nH]c4ccccc34)C(=O)NC2=O)c2ccccc21 | 91 | 90.5 | 94.1 | 98 | 89.3 | 105 | 94.2 | 92 | 107 | 68.6 | 94.7 | 96.2 | 102 | 95.2 | 31 | 98.8 | 103 | 96.5 | 101 | 70.8 | > 10 | – | 2.6 | – | 0 | 1.1 | 4.5 | 1.2 | 101 | 95.2 | 98.3 | 96.3 | 68.8 | – | 2
4 | NC(=O)c1ccc(I)c([N+](=O)[O-])c1 [iniparib] | – | – | – | – | – | 110 | 99 | 103 | 102 | 114 | 91.2 | 106 | 107 | 94.2 | 106 | 104 | 95.8 | 96.4 | 104 | 98.4 | – | > 10 | > 10 | > 10 | – | 0 | 0 | 0 | – | – | – | – | – | – | –
5 | COc1cccc(OC)c1-c1cc(C(=O)N[C@@H](CC(C)C)C(=O)O)nn1-c1ccnc2cc(Cl)ccc12 [TC-NTR1-17] | 103 | 99.6 | 100 | 91.7 | 99.9 | 117 | 102 | 93 | 104 | 104 | 102 | 106 | 97 | 106 | 106 | – | – | – | – | – | > 10 | > 10 | > 10 | – | 0 | 0 | 0 | – | – | – | – | – | – | – | –
6 | CC(C)n1nccc1-c1ncccc1COc1cccc(O)c1C=O [voxelotor] | 101 | 95.4 | 96.5 | 104 | 84.6 | 100 | 92.4 | 102 | 98.8 | 101 | 98.1 | 109 | 96.9 | 109 | 101 | 102 | 97.1 | 96.5 | 95.8 | 94.8 | > 10 | > 10 | > 10 | > 10 | 0.2 | 0 | 0 | 0 | – | – | – | – | – | – | –
7 | COc1ccc(-c2nc3cc(C4=NNC(=O)CC4C)ccc3[nH]2)cc1 (centres undefined) [pimobendan] | 106 | 104 | 98.4 | 96.4 | 80.7 | 98 | 85.8 | 112 | 95.8 | 90.8 | 120 | 113 | 103 | 105 | 59.5 | 107 | 105 | 103 | 97.7 | 84.7 | > 10 | > 10 | – | > 10 | 1 | 0 | 1.7 | 0.5 | 105 | 110 | 99.2 | 101 | 92.7 | > 10 | 0
8 | Nc1c(Br)cc(Br)cc1CN[C@H]1CC[C@H](O)CC1 [ambroxol] | 100 | 92.8 | 98.5 | 89.4 | 97.5 | 105 | 101 | 102 | 91.8 | 88.7 | 102 | 98.5 | 99.6 | 103 | 87.5 | 103 | 99 | 103 | 101 | 101 | > 10 | > 10 | > 10 | > 10 | 0 | 0.2 | 0 | 0 | – | – | – | – | – | – | –
9 | CCC(O)(CC(N)=O)c1ccccc1 (centres undefined) [3-hydroxy-3-phenylpentanamide] | 96.1 | 106 | 102 | 100 | 95.8 | 98.2 | 106 | 89.4 | 103 | 108 | 95.9 | 93 | 107 | 100 | 98.1 | 95 | 99 | 98.3 | 104 | 99 | > 10 | > 10 | > 10 | > 10 | 0 | 0 | 0 | 0 | – | – | – | – | – | – | –
10 | Cc1cc(C)c(/C=C2\C(=O)Nc3ccccc32)[nH]1 [semaxanib] | 103 | 90.6 | 100 | 90.4 | 91.3 | 93.2 | 87.4 | 93.6 | 94.9 | 102 | 99 | 96.2 | 91 | 92 | 67.1 | 99.7 | 96.6 | 100 | 99.4 | 97.4 | > 10 | > 10 | – | > 10 | 0 | 0 | 2.4 | 0 | 103 | 102 | 98.7 | 105 | 106 | > 10 | 0
11 | O=C(N/N=C/c1ccc([N+](=O)[O-])o1)c1cc([N+](=O)[O-])cc([N+](=O)[O-])c1O [nifursol] | 96.9 | 102 | 97.1 | 94.4 | 90.2 | 89.1 | 102 | 103 | 94.9 | 101 | 109 | 100 | 93 | 93.7 | 85.4 | 96.9 | 98.3 | 104 | 96.8 | 101 | > 10 | > 10 | > 10 | > 10 | 0 | 0 | 0.3 | 0 | – | – | – | – | – | – | –
12 | Cc1c(C(=O)Nc2ccc(N3CCC(N4CCOCC4)CC3)c(C#N)c2)cnn1-c1ccc(Cl)cc1 [Y-320] | 104 | 93.8 | 103 | 87.5 | 74.9 | 103 | 103 | 90.1 | 89.6 | 69.9 | 106 | 109 | 105 | 77.4 | 23 | – | – | – | – | – | – | – | 1.42 | – | 2.4 | 2.2 | 7.6 | – | 104 | 104 | 106 | 104 | 74.6 | – | 0.8
13 | CNC[C@H](O)c1ccc(O)c(O)c1 [epinephrine] | 93.7 | 105 | 86.3 | 98.5 | 90 | 101 | 110 | 111 | 111 | 97.3 | 108 | 106 | 104 | 94.4 | 57.5 | 96.9 | 101 | 98.2 | 104 | 105 | > 10 | > 10 | – | > 10 | 0 | 0 | 3.1 | 0 | 93.3 | 89.7 | 95.1 | 89.6 | 111 | > 10 | 0
14 | O=C(O)c1nn(Cc2ccc(Cl)cc2Cl)c2ccccc12 [lonidamine] | 95.3 | 107 | 94.1 | 105 | 96.4 | 98.5 | 96.2 | 89.8 | 101 | 116 | – | – | – | – | – | 100 | 110 | 98 | 111 | 98 | > 10 | > 10 | – | > 10 | 0 | 0 | – | 0 | 98.8 | 102 | 102 | 95.8 | 95.8 | > 10 | 0
15 | CNC1CC(N)C(O)C(OC2OC(CO)C(O)C3OC4(OC(C(N)CO)C(O)C(O)C4O)OC23)C1O (centres undefined) [Hygromycin B] | 97.2 | 105 | 107 | 108 | 95.9 | 95.7 | 93.5 | 92.9 | 97.5 | 89.8 | – | – | – | – | – | 104 | 97.8 | 99 | 103 | 93.9 | > 10 | > 10 | – | > 10 | 0 | 0 | – | 0 | 95.9 | 93.4 | 95.4 | 91.5 | 104 | > 10 | 0
16 | O=C(NCCCNc1nc(Nc2cccc(NC(=O)N3CCCC3)c2)ncc1I)c1cccs1 [BX-795] | 98.2 | 98 | 105 | 92.6 | 63.7 | 93.4 | 97.3 | 102 | 107 | 89.2 | 96.9 | 90.4 | 96.7 | 101 | 34.7 | 104 | 99.3 | 100 | 90.9 | 31.2 | – | > 10 | 3.26 | 2.1 | 2.9 | 0 | 3.5 | 5.3 | 97.8 | 98.4 | 97 | 101 | 61.7 | – | 1.8
